Data on 23 compounds can be found in ChEMBL document CHEMBL4602612, “Design, synthesis and biological evaluation of mogrol derivatives as a novel class of AMPKα2β1γ1 activators” (Bioorg Med Chem Lett, 2020).

Structures are written as SMILES.

For orientation: EC50 means the concentration giving half of the maximal effect. A higher EC50 goes with weaker potency.

One experiment concerns the target AMPK alpha2/beta1/gamma1 (Homo sapiens, UniProt P54619+P54646+Q9Y478). The experiment can be described thus: Allosteric activation of AMPK alpha2/beta1/gamma1 in human HepG2 cells by scintillation proximity assay. The experiment is classed as cell-based.
Experiment [1] deals with AMPK alpha2/beta1/gamma1 (Homo sapiens) (UniProt P54646+P54619+Q9Y478). Description: Potency index, ratio of mogrol EC50 to test compound EC50 for allosteric activation of AMPK alpha2/beta1/gamma1 in human HepG2 cells by scintillation proximity assay. It counts as cell-based. On the technique in general: Scintillation proximity formats need no separation of bound from free tracer.
AMPK alpha2/beta1/gamma1 (Homo sapiens), sequence (P54619 whole entry partner): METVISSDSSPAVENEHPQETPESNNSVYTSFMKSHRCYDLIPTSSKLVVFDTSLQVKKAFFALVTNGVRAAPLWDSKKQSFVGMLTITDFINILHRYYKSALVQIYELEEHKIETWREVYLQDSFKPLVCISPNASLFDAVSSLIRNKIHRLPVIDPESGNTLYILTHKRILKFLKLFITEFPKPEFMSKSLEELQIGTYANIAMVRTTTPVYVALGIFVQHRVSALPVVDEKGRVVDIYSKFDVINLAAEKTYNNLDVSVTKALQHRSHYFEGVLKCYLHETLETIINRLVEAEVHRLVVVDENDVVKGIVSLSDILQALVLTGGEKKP
AMPK alpha2/beta1/gamma1 (Homo sapiens), sequence (P54646 whole entry): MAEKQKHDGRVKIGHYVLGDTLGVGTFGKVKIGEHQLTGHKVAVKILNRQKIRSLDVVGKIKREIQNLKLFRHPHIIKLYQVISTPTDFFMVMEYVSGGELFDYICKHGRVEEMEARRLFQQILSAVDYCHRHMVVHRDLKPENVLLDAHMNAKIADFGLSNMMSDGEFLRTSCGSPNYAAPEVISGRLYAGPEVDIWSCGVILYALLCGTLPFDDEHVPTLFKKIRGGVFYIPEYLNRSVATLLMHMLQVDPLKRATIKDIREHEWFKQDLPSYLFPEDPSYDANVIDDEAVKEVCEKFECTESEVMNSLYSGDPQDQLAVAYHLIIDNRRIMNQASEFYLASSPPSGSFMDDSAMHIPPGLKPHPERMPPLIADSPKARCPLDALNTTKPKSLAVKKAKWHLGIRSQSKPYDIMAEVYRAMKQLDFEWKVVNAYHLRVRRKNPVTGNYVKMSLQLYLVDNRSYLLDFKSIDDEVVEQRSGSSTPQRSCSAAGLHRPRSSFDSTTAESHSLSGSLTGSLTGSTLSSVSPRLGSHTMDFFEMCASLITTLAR
AMPK alpha2/beta1/gamma1 (Homo sapiens), sequence (Q9Y478 2-270 partner limits assumed): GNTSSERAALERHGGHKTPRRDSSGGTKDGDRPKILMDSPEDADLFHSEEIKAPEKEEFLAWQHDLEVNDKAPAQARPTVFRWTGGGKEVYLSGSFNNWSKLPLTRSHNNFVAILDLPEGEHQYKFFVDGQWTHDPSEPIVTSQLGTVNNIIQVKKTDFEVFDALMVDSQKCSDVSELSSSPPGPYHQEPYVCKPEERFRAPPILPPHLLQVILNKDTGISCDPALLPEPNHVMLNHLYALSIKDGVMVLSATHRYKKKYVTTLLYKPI

AMPK alpha2/beta1/gamma1, sequence (P54646 whole entry): as the sequence (P54646 whole entry) above
AMPK alpha2/beta1/gamma1, sequence (P54619 whole entry): as the sequence (P54619 whole entry partner) above
AMPK alpha2/beta1/gamma1, sequence (Q9Y478 whole entry): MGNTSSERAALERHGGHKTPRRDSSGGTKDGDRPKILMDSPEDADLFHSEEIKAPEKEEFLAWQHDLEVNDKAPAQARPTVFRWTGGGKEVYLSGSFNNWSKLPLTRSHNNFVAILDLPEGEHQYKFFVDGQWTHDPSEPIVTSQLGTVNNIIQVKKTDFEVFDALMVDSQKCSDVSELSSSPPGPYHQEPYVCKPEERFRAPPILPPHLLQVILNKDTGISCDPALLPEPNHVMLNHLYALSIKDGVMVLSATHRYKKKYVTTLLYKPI

`C[C@H](CCCNCc1ccc(F)cc1)[C@H]1CC[C@@]2(C)[C@@H]3CC=C4[C@@H](CC[C@H](O)C4(C)C)[C@]3(C)[C@H](O)C[C@]12C`: the midpoint of the response at AMPK alpha2/beta1/gamma1, the EC50, lay at 700 nM.

In turn, `C[C@H](CCCNC(C)(C)C)[C@H]1CC[C@@]2(C)[C@@H]3CC=C4[C@@H](CC[C@H](O)C4(C)C)[C@]3(C)[C@H](O)C[C@]12C` registered an EC50 on AMPK alpha2/beta1/gamma1 of 1400 nM.

As for `C[C@H](CCCNCc1cccnc1)[C@H]1CC[C@@]2(C)[C@@H]3CC=C4[C@@H](CC[C@H](O)C4(C)C)[C@]3(C)[C@H](O)C[C@]12C`, at AMPK alpha2/beta1/gamma1, the EC50 is 700 nM.

`C[C@H](CCCNCc1ccccc1)[C@H]1CC[C@@]2(C)[C@@H]3CC=C4[C@@H](CC[C@H](O)C4(C)C)[C@]3(C)[C@H](O)C[C@]12C` had a 50% effective concentration (EC50) at AMPK alpha2/beta1/gamma1 of 1500 nM.

As to `COc1ccc(CNCCC[C@@H](C)[C@H]2CC[C@@]3(C)[C@@H]4CC=C5[C@@H](CC[C@H](O)C5(C)C)[C@]4(C)[C@H](O)C[C@]23C)cc1OC`, the EC50 at AMPK alpha2/beta1/gamma1 came out at 200 nM.

On AMPK alpha2/beta1/gamma1, `C[C@H](CCCNC1CC1)[C@H]1CC[C@@]2(C)[C@@H]3CC=C4[C@@H](CC[C@H](O)C4(C)C)[C@]3(C)[C@H](O)C[C@]12C` displayed an EC50 of 4100 nM.

`C[C@H](CCCNCCc1ccc([N+](=O)[O-])cc1)[C@H]1CC[C@@]2(C)[C@@H]3CC=C4[C@@H](CC[C@H](O)C4(C)C)[C@]3(C)[C@H](O)C[C@]12C` displayed an EC50 on AMPK alpha2/beta1/gamma1 of 1700 nM.

At AMPK alpha2/beta1/gamma1, `C[C@H](CCCNCc1ccc(Cl)cc1)[C@H]1CC[C@@]2(C)[C@@H]3CC=C4[C@@H](CC[C@H](O)C4(C)C)[C@]3(C)[C@H](O)C[C@]12C` displayed a 50% effective concentration (EC50) of 600 nM.

On AMPK alpha2/beta1/gamma1, `CC(C)NCCC[C@@H](C)[C@H]1CC[C@@]2(C)[C@@H]3CC=C4[C@@H](CC[C@H](O)C4(C)C)[C@]3(C)[C@H](O)C[C@]12C` had an EC50 of 140 nM. Moreover, the Ratio EC50 in experiment [1] stood at 20.

At AMPK alpha2/beta1/gamma1, `C[C@H](CCCNCCN1CCNCC1)[C@H]1CC[C@@]2(C)[C@@H]3CC=C4[C@@H](CC[C@H](O)C4(C)C)[C@]3(C)[C@H](O)C[C@]12C` came in with an EC50 of 500 nM.

`C[C@H](CCCNCCCn1ccnc1)[C@H]1CC[C@@]2(C)[C@@H]3CC=C4[C@@H](CC[C@H](O)C4(C)C)[C@]3(C)[C@H](O)C[C@]12C` gave an EC50 on AMPK alpha2/beta1/gamma1 of 3500 nM.

Turning to `Nc1ncnc2c1ncn2[C@@H]1O[C@H](COP(=O)(O)O)[C@@H](O)[C@H]1O` [ADENOSINE PHOSPHATE], on AMPK alpha2/beta1/gamma1, the midpoint of the response, the EC50, lay at 1400 nM.

For the compound `CNCCC[C@@H](C)[C@H]1CC[C@@]2(C)[C@@H]3CC=C4[C@@H](CC[C@H](O)C4(C)C)[C@]3(C)[C@H](O)C[C@]12C`, the EC50 at AMPK alpha2/beta1/gamma1 came to 7400 nM.

As for `COc1ccc(CCNCCC[C@@H](C)[C@H]2CC[C@@]3(C)[C@@H]4CC=C5[C@@H](CC[C@H](O)C5(C)C)[C@]4(C)[C@H](O)C[C@]23C)cc1OC`, at AMPK alpha2/beta1/gamma1, the EC50 was 500 nM.

Compound `CCNCCC[C@@H](C)[C@H]1CC[C@@]2(C)[C@@H]3CC=C4[C@@H](CC[C@H](O)C4(C)C)[C@]3(C)[C@H](O)C[C@]12C` came in with an EC50 at AMPK alpha2/beta1/gamma1 of 5000 nM.

As for `CCCNCCC[C@@H](C)[C@H]1CC[C@@]2(C)[C@@H]3CC=C4[C@@H](CC[C@H](O)C4(C)C)[C@]3(C)[C@H](O)C[C@]12C`, at AMPK alpha2/beta1/gamma1, a half-maximal response (EC50) required 150 nM. In experiment [1], the Ratio EC50 amounted to 20.

The compound `C[C@H](CCCNCCCO)[C@H]1CC[C@@]2(C)[C@@H]3CC=C4[C@@H](CC[C@H](O)C4(C)C)[C@]3(C)[C@H](O)C[C@]12C` came in with an EC50 on AMPK alpha2/beta1/gamma1 of 1400 nM.

Consider `C[C@H](CC[C@@H](O)C(C)(C)O)[C@H]1CC[C@@]2(C)[C@@H]3CC=C4[C@@H](CC[C@H](O)C4(C)C)[C@]3(C)[C@H](O)C[C@]12C` [MOGROL], for which the response on AMPK alpha2/beta1/gamma1 was half-maximal at 3000 nM (EC50).

On to `C[C@H](CCCNCCc1ccccc1)[C@H]1CC[C@@]2(C)[C@@H]3CC=C4[C@@H](CC[C@H](O)C4(C)C)[C@]3(C)[C@H](O)C[C@]12C`, for which, at AMPK alpha2/beta1/gamma1, the EC50 is 2000 nM.

Regarding `COc1ccc(NCCC[C@@H](C)[C@H]2CC[C@@]3(C)[C@@H]4CC=C5[C@@H](CC[C@H](O)C5(C)C)[C@]4(C)[C@H](O)C[C@]23C)cc1`, the EC50 at AMPK alpha2/beta1/gamma1 came out at 4700 nM.

As to `C[C@H](CCCNCc1ccccn1)[C@H]1CC[C@@]2(C)[C@@H]3CC=C4[C@@H](CC[C@H](O)C4(C)C)[C@]3(C)[C@H](O)C[C@]12C`, it took 1600 nM to reach a half-maximal effect on AMPK alpha2/beta1/gamma1 (EC50).

`C[C@H](CCCNCc1ccncc1)[C@H]1CC[C@@]2(C)[C@@H]3CC=C4[C@@H](CC[C@H](O)C4(C)C)[C@]3(C)[C@H](O)C[C@]12C` had an EC50 on AMPK alpha2/beta1/gamma1 of 500 nM.

With `C[C@H](NCCC[C@@H](C)[C@H]1CC[C@@]2(C)[C@@H]3CC=C4[C@@H](CC[C@H](O)C4(C)C)[C@]3(C)[C@H](O)C[C@]12C)c1ccccc1`, on AMPK alpha2/beta1/gamma1, it took 1700 nM to reach a half-maximal effect (EC50).
